Like-named read-outs stand apart in the source and are kept apart here.
Experiments:
[1] = Excretion into bile after venous injection; assay type: in vivo; settings: rabbit, iv, within 6 hours, of amount administered
Method: From the Figure it is recognized that an amount as small as 0.3 to 0.5% of the administered MR is discharged into bile within 6 hours after administration.

[2] = tested on: spontaneous motor activity; assay: Effect on spontaneous motor activity; assay type: in vivo, mouse (dd-strain); settings: 25 mg/kg oral
Method: 25 mg/kg of MR were administered to the mice. After 15 minutes of letting them alone, spontaneous motor activity over 6 hours was measured hourly with an "Animex" made by AB Farad.

rat = settings: oral
blood pressure of SHR = assay: Antihypertensive effect by single administration, SHR, direct cannulation; assay type: in vivo, rat (spontaneously hypertensive rats; settings: for average rate of decrease in blood pressure: over 6 hours; for blood pressure decrease: 6 hours after; for ED (20% blood pressure decrease): Rattus norvegicus, read-out: DB20 (20% blood pressure descending dose)
Method: The effect was examined through both direct and modified tail-cuff methods using male SHRs aged 25 to 30 weeks and weighing about 300 g.
In the direct cannulation method, polyethylene cannules were inserted in femoral arteries of the conscious unanesthesized SHRs under back-fixation,and MR solution was administered in an amount of 0.1 mg/100 g of weight for venous injection, and 1 ml/100 g of weight for oral administration. Changes in the blood pressure over 6 hours were measured with a multi-purpose polygraph RM-85 made by NIHON KODEN Co., Ltd. MR was dissolved in 0.9% NaCl aqueous solution with 1 N-HCl, and the solution was neutralized for use.

[3] = rat, in vivo, po
rats [4] = assay: in vivo; assay type: in vivo, rat (SD (SPF))
Method: (§1) All the rats were observed daily and general symptoms noted. Weight was measured daily, average food-intake once every three days, and average water-intake once every two days.

in vivo = assay type: in vivo, rat (SD (SPF)); settings: rat, in vivo; oral sub-acute, rats; read-out: ineffective dose
Method: as §1

rats [5] = tested on: rats
Method: (§2) The rate were bred in individual cages under the following conditions: temperature, 23°±2° C.; relative humidity, 55±5%; free taking of solid food (CE-2, CLEA Japan, Inc.) and tap water.
(§3) Volume of the medicine solution for one administration was dicided to be 1 ml per 100 g of weight, and the dose was administered once a day, 6 times a week over 5 weeks. The control group received the same volume of 0.2% carboxymethyl cellulose solution.
After the final administration followed by 24 hours fast, the following analyses were made: Glucose (by o-toluidine-boric acid method); Total Protein (by biurett method); Blood Uria Nitrogen (diacetyl monoxime method); GOT and GPT Activities (Reitman-Frankel method); Alkaline Phosphatase Activity (Kind-King method); and Sodium and Potassium Content (flame-photometer).

rats [6] = tested on: rats; remark: listed apart in the source
Method: as §2, §3

[7] = in vivo; cited from earlier work

Question: With COC(=O)[C@H]1[C@H]2C[C@@H]3c4[nH]c5cc(OC)ccc5c4CCN3C[C@H]2C[C@@H](O)[C@@H]1OC [MR, methylreserpate] as the compound, how does the dose excreted at 6 h [1] read?
Answer: 0.3 to 0.5%

Question: What about the “average suppressive effect among four groups” value ([2]; P=0.05) of the same compound?
Answer: no significant difference

Question: What about the “effect on spontaneous motor activity” value ([2]; from 3 hours after) of the same compound?
Answer: tended to supress spontaneous motor activity

Question: What about the “LD50 as multiple of clinical dosage of RCN” value (rat) of the same compound?
Answer: about 24,000 times

Question: And the “average rate of decrease in blood pressure” value (from here on “average rate of decrease”) (blood pressure of SHR; 2 mg/kg venous injection)?
Answer: 13%

Question: And the “onset of blood pressure decrease” value (blood pressure of SHR; 4 mg/kg oral)?
Answer: 2 h

Question: And the blood pressure decrease (blood pressure of SHR; 4 mg/kg oral)?
Answer: 18%

Question: And the “average rate of decrease” value (blood pressure of SHR; 4 mg/kg venous injection)?
Answer: 22.5%

Question: What about the blood pressure decrease (blood pressure of SHR; 8 mg/kg oral) of the same compound?
Answer: 26%

Question: What about the “average rate of decrease” value (blood pressure of SHR; 8 mg/kg venous injection) of the same compound?
Answer: 28%

Question: And the blood pressure decrease (blood pressure of SHR; 16 mg/kg oral)?
Answer: 37%

Question: What about the ED (20% blood pressure decrease) (blood pressure of SHR; iv, I.V.) of the same compound?
Answer: 3.5 mg/kg

Question: And the ED (20% blood pressure decrease) (blood pressure of SHR; po, P.O.)?
Answer: 11.9 mg/kg

Question: And the “antihypertensive effect compared with RCN” value (blood pressure of SHR; oral)?
Answer: almost the same

Question: And the antihypertensive effect (blood pressure of SHR; oral, summary for SHR and dogs)?
Answer: prolonged antihypertensive effect

Question: And the “antihypertensive effect compared with RCN” value (blood pressure of SHR; venous injection)?
Answer: less intense

Question: What about the metabolism [3] of the same compound?
Answer: hardly metabolized

Question: And the side effects (rats [4]; only at the higher doses)?
Answer: blepharoptosis, leukopenia, increase of urine volume, atrophy of hematopoietic organs, cortial hypertrophy of adrenal and degeneration of liver cells (in dead rats)

Question: What about the food-intake (rats [4]; rat, in vivo) of the same compound?
Answer: No difference

Question: And the general symptoms (rats [4]; rat, in vivo)?
Answer: blepharoptosis, roughening of fur and dirtiness of public region

Question: And the “general symptoms, additional” value (rats [4]; rat, in vivo)?
Answer: reduction of body weight, bloody cojunctival discharge, and a decrease of limb-skin temperature

Question: What about the NOAEL (in vivo) of the same compound?
Answer: 12.5 mg/kg

Question: And the ALP (rats [5]; 25.0 mg/kg, 30 days)?
Answer: 17.0±0.93 K.A.U.

Question: What about the BUN (rats [5]; 25.0 mg/kg, 30 days) of the same compound?
Answer: 15.7 ± 0.77 mg/dL

Question: And the GOT (rats [5]; 25.0 mg/kg, 30 days)?
Answer: 92.2±8.74 K.U.

Question: And the Glucose (rats [5]; 25.0 mg/kg, 30 days)?
Answer: 155.4 ± 6.06 mg/dL

Question: What about the “Total Protein” value (rats [5]; 25.0 mg/kg, 30 days) of the same compound?
Answer: 6.65 ± 0.08 g/dL

Question: And the ALP (rats [5]; 50.0 mg/kg, 30 days)?
Answer: 18.7±1.39 K.A.U.

Question: What about the “Total Protein” value (rats [5]; 50.0 mg/kg, 30 days) of the same compound?
Answer: 6.76 ± 0.18 g/dL

Question: What about the BUN (rats [5]; 50.0 mg/kg, 30 days, P<0.05) of the same compound?
Answer: 17.2 ± 0.56 mg/dL

Question: And the GOT (rats [5]; 50.0 mg/kg, 30 days, P<0.05)?
Answer: 117.1±10.48 K.U.

Question: And the Glucose (rats [5]; 50.0 mg/kg, 30 days, P<0.05)?
Answer: 113.7 ± 5.25 mg/dL

Question: And the ALP (rats [5]; 100.0 mg/kg, 30 days)?
Answer: 22.7±2.91 K.A.U.

Question: What about the “Total Protein” value (rats [5]; 100.0 mg/kg, 30 days) of the same compound?
Answer: 6.57 ± 0.28 g/dL

Question: And the BUN (rats [5]; 100.0 mg/kg, 30 days, P<0.05)?
Answer: 17.5 ± 1.01 mg/dL

Question: What about the GOT (rats [5]; 100.0 mg/kg, 30 days, P<0.05) of the same compound?
Answer: 114.9±7.02 K.U.

Question: And the Glucose (rats [5]; 100.0 mg/kg, 30 days, P<0.05)?
Answer: 100.5 ± 8.60 mg/dL

Question: And the serum glucose (rats [5]; 50 and 100 mg/kg groups)?
Answer: decrease of glucose value

Question: And the other serum biochemistry (rats [5]; all determinations other than glucose)?
Answer: all within the scope of normal values

Question: What about the ALP (rats [5]; rat, in vivo) of the same compound?
Answer: 18.8±10.82

Question: What about the BUN (rats [5]; rat, in vivo) of the same compound?
Answer: 14.6±0.35

Question: And the GOT (rats [5]; rat, in vivo)?
Answer: 80.4±7.55

Question: And the Glucose (rats [5]; rat, in vivo)?
Answer: 149.3±3.36

Question: What about the “Total Protein” value (rats [5]; rat, in vivo) of the same compound?
Answer: 7.06±0.09

Question: What about the Eosino. (rats [6]; 25.0 mg/kg, day 10) of the same compound?
Answer: 1.5±0.3%

Question: What about the Lymph. (rats [6]; 25.0 mg/kg, day 10) of the same compound?
Answer: 81.8±2.0%

Question: What about the Mono. (rats [6]; 25.0 mg/kg, day 10) of the same compound?
Answer: 2.1±0.4%

Question: What about the Neutro. (rats [6]; 25.0 mg/kg, day 10) of the same compound?
Answer: 14.6±1.6%

Question: What about the Platelet (rats [6]; 25.0 mg/kg, day 10) of the same compound?
Answer: 853±32.6 ×10^3 /mm^3

Question: What about the Eosino. (rats [6]; 25.0 mg/kg, day 20) of the same compound?
Answer: 1.8±0.4%

Question: What about the Lymph. (rats [6]; 25.0 mg/kg, day 20) of the same compound?
Answer: 74.8±2.1%

Question: And the Mono. (rats [6]; 25.0 mg/kg, day 20)?
Answer: 1.2±0.3%

Question: What about the Neutro. (rats [6]; 25.0 mg/kg, day 20) of the same compound?
Answer: 22.8±2.2%

Question: And the Eosino. (rats [6]; 25.0 mg/kg, day 30)?
Answer: 1.4±0.6%

Question: What about the Lymph. (rats [6]; 25.0 mg/kg, day 30) of the same compound?
Answer: 78.0±2.0%

Question: And the Mono. (rats [6]; 25.0 mg/kg, day 30)?
Answer: 1.5±0.5%

Question: And the Neutro. (rats [6]; 25.0 mg/kg, day 30)?
Answer: 19.2±1.9%

Question: And the Platelet (rats [6]; 25.0 mg/kg, day 30)?
Answer: 658±26.8 ×10^3 /mm^3

Question: What about the Eosino. (rats [6]; 50.0 mg/kg, day 10) of the same compound?
Answer: 1.8±0.4%

Question: And the Lymph. (rats [6]; 50.0 mg/kg, day 10)?
Answer: 82.3±1.1%

Question: And the Mono. (rats [6]; 50.0 mg/kg, day 10)?
Answer: 2.4±0.3%

Question: And the Neutro. (rats [6]; 50.0 mg/kg, day 10)?
Answer: 13.5±0.8%

Question: What about the Platelet (rats [6]; 50.0 mg/kg, day 10) of the same compound?
Answer: 861±33.5 ×10^3 /mm^3

Question: And the Eosino. (rats [6]; 50.0 mg/kg, day 20)?
Answer: 1.3±0.4%

Question: What about the Lymph. (rats [6]; 50.0 mg/kg, day 20) of the same compound?
Answer: 75.0±2.3%

Question: And the Mono. (rats [6]; 50.0 mg/kg, day 20)?
Answer: 1.6±0.3%

Question: What about the Neutro. (rats [6]; 50.0 mg/kg, day 20) of the same compound?
Answer: 22.1±2.2%

Question: What about the Eosino. (rats [6]; 50.0 mg/kg, day 30) of the same compound?
Answer: 2.6±0.5%

Question: And the Lymph. (rats [6]; 50.0 mg/kg, day 30)?
Answer: 78.7±1.8%

Question: What about the Mono. (rats [6]; 50.0 mg/kg, day 30) of the same compound?
Answer: 1.2±0.2%

Question: And the Neutro. (rats [6]; 50.0 mg/kg, day 30)?
Answer: 17.5±1.8%

Question: And the Platelet (rats [6]; 50.0 mg/kg, day 30)?
Answer: 656±36.7 ×10^3 /mm^3

Question: What about the Eosino. (rats [6]; 100.0 mg/kg, day 10) of the same compound?
Answer: 2.3±0.5%

Question: What about the Lymph. (rats [6]; 100.0 mg/kg, day 10) of the same compound?
Answer: 77.1±2.2%

Question: And the Mono. (rats [6]; 100.0 mg/kg, day 10)?
Answer: 2.3±0.3%

Question: What about the Neutro. (rats [6]; 100.0 mg/kg, day 10) of the same compound?
Answer: 18.3±2.3%

Question: And the Platelet (rats [6]; 100.0 mg/kg, day 10)?
Answer: 782±31.2 ×10^3 /mm^3

Question: What about the Eosino. (rats [6]; 100.0 mg/kg, day 20) of the same compound?
Answer: 1.2±0.3%

Question: And the Lymph. (rats [6]; 100.0 mg/kg, day 20)?
Answer: 69.6±3.0%

Question: What about the Mono. (rats [6]; 100.0 mg/kg, day 20) of the same compound?
Answer: 1.6±0.3%

Question: And the Neutro. (rats [6]; 100.0 mg/kg, day 20)?
Answer: 27.6±2.9%

Question: And the Eosino. (rats [6]; 100.0 mg/kg, day 30)?
Answer: 1.4±0.4%

Question: And the Lymph. (rats [6]; 100.0 mg/kg, day 30)?
Answer: 75.2±1.6%

Question: What about the Mono. (rats [6]; 100.0 mg/kg, day 30) of the same compound?
Answer: 1.5±0.3%

Question: And the Neutro. (rats [6]; 100.0 mg/kg, day 30)?
Answer: 21.9±1.9%

Question: What about the Platelet (rats [6]; 100.0 mg/kg, day 30) of the same compound?
Answer: 696±13.9 ×10^3 /mm^3

Question: And the Eosino. (rats [6]; 200.0 mg/kg, day 10, 4 rats)?
Answer: 0.8±0.5%

Question: What about the Lymph. (rats [6]; 200.0 mg/kg, day 10, 4 rats) of the same compound?
Answer: 36.3±12%

Question: What about the Mono. (rats [6]; 200.0 mg/kg, day 10, 4 rats) of the same compound?
Answer: 1.3±0.5%

Question: What about the Neutro. (rats [6]; 200.0 mg/kg, day 10, 4 rats) of the same compound?
Answer: 61.8±12%

Question: And the Platelet (rats [6]; 200.0 mg/kg, day 10, 4 rats)?
Answer: 592±54.7 ×10^3 /mm^3

Question: And the antihypertensive effect [7]?
Answer: no antihypertensive effect
